The source made the active and inactive calls. The calls are words filed in the database; no cut-off is given here.
Columns and labels:
Nucleic Acid [1] = test: Binding affinity to human single-strand oligonucleotide MutPu39 transfected in human HL60 cells assessed as Bcl-2 transcriptional activation at 0.4 uM after 48 hrs by luciferase reporter gene assay relative to untreated MutPu39-construct control; type: cell-based; conditions: HL-60
Nucleic Acid [2] = test: Binding affinity to single-strand oligonucleotide MutPu39 assessed as formation of G-quadruplex complex after 3 mins by PCR stop assay; type: nucleic-acid assay
HL-60 [3] = test: Downregulation of Bcl-2 mRNA expression in human HL60 cells at 0.8 uM by RT-PCR analysis; type: functional
Nucleic Acid [4] = test: Binding affinity to single-strand oligonucleotide Pu39 assessed as formation of G-quadruplex complex after 3 mins by PCR stop assay; type: nucleic-acid assay
HL-60 [5] = test: Antiproliferative activity against human HL60 cells at 0.1 to 1 uM after 4 days by trypan blue exclusion assay; type: functional, cell-based
HL-60 [6] = test: Cell cycle arrest in human HL60 cells assessed as accumulation at sub-G1 phase at 0.2 uM after 4 days by propidium iodide staining-based flow cytometry; type: functional
HL-60 [7] = test: Induction of apoptosis in human HL60 cells assessed as cleavage of 17 kDa procaspase-3 at 0.1 to 1 uM after 4 days by Western blot analysis; type: functional, cell-based
HL-60 [8] = test: Cell cycle arrest in human HL60 cells assessed as accumulation at sub-G1 phase at 1 uM after 4 days by propidium iodide staining-based flow cytometry; type: functional
Nucleic Acid [9] = test: Binding affinity to human single-strand oligonucleotide MutPu39 transfected in human HL60 cells assessed as reduction of Bcl-2 transcriptional activation at 0.4 uM after 48 hrs by luciferase reporter gene assay; type: cell-based; conditions: HL-60
HL-60 [10] = test: Cell cycle arrest in human HL60 cells assessed as accumulation at sub-G1 phase at 0.5 uM after 4 days by propidium iodide staining-based flow cytometry; type: functional
Nucleic Acid [11] = test: Binding affinity to Bcl-2 promoter duplex DNA by surface plasmon resonance assay; type: nucleic-acid assay
Nucleic Acid [12] = test: Stabilization of single-strand oligonucleotide MidG4 assessed as melting temperature by FRET assay; type: nucleic-acid assay
HL-60 [13] = test: Downregulation of Bcl-2 protein expression in human HL60 cells at 0.1 to 1 uM after 4 days by Western blot analysis; type: functional, cell-based
Nucleic Acid [14] = test: Binding affinity to Bcl-2 promoter quadruplex DNA by surface plasmon resonance assay; type: nucleic-acid assay
HL-60 [15] = test: Induction of apoptosis in human HL60 cells assessed as cleavage of 35 kDa procaspase-3 at 0.1 to 1 uM after 4 days by Western blot analysis; type: functional, cell-based
Nucleic Acid [16] = test: Selectivity ratio of Kd for Bcl-2 promoter duplex DNA to Kd for Bcl-2 promoter quadruplex DNA; type: nucleic-acid assay
Nucleic Acid [17] = test: Binding affinity to human single-strand oligonucleotide Pu39 transfected in human HL60 cells assessed as reduction of Bcl-2 transcriptional activation at 0.4 uM after 48 hrs by luciferase reporter gene assay; type: cell-based; conditions: HL-60
HL-60 [18] = test: Antiproliferative activity against human HL60 cells assessed as viable cells at 1 uM after 4 days by trypan blue exclusion assay; type: functional; conditions: HL-60, 96 h, read-out: Activity
Nucleic Acid [19] = test: Binding affinity to human single-strand oligonucleotide MutPu39 transfected in human HL60 cells assessed as Bcl-2 transcriptional activation at 0.4 uM after 48 hrs by luciferase reporter gene assay relative to untreated Pu39-construct control; type: cell-based; conditions: HL-60
HL-60 [20] = test: Downregulation of Bcl-2 mRNA expression in human HL60 cells by RT-PCR analysis; type: functional, cell-based
HL-60 [21] = test: Induction of apoptosis in human HL60 cells assessed as PARP cleavage at 1 uM after 4 days by Western blot analysis; type: functional, cell-based
Nucleic Acid [22] = test: Binding affinity to human single-strand oligonucleotide Pu39 transfected in human HL60 cells assessed as Bcl-2 transcriptional activation at 0.4 uM after 48 hrs by luciferase reporter gene assay relative to untreated Pu39-construct control; type: cell-based; conditions: HL-60
HL-60 [23] = test: Induction of apoptosis in human HL60 cells assessed as cleavage of 17 kDa procaspase-3 at 0.02 to 0.2 uM after 4 days by Western blot analysis; type: functional, cell-based
HL-60 [24] = test: Antiproliferative activity against human HL60 cells at 0.02 to 0.2 uM after 4 days by trypan blue exclusion assay; type: functional, cell-based
HL-60 [25] = test: Downregulation of Bcl-2 protein expression in human HL60 cells at 0.02 to 0.2 uM after 4 days by Western blot analysis; type: functional, cell-based
HL-60 [26] = test: Antiproliferative activity against human HL60 cells assessed as viable cells at 0.2 uM after 4 days by trypan blue exclusion assay; type: functional; conditions: HL-60, 96 h, read-out: Activity
HL-60 [27] = test: Induction of apoptosis in human HL60 cells assessed as PARP cleavage at 0.2 uM after 4 days by Western blot analysis; type: functional, cell-based
HL-60 [28] = test: Downregulation of Bcl-2 mRNA expression in human HL60 cells at 0.2 uM by RT-PCR analysis; type: functional
HL-60 [29] = test: Cell cycle arrest in human HL60 cells assessed as accumulation at sub-G1 phase at 0.1 uM after 4 days by propidium iodide staining-based flow cytometry; type: functional
HL-60 [30] = test: Cell cycle arrest in human HL60 cells assessed as accumulation at sub-G1 phase at 0.05 uM after 4 days by propidium iodide staining-based flow cytometry; type: functional
HL-60 [31] = test: Induction of apoptosis in human HL60 cells assessed as cleavage of 35 kDa procaspase-3 at 0.02 to 0.2 uM after 4 days by Western blot analysis; type: functional, cell-based

Compound | Activity (Nucleic Acid [1]) | IC50 (Nucleic Acid [2]) | IC50 (Nucleic Acid [4]) | Activity (HL-60 [6]) | inhibition (Nucleic Acid [9]) | Kd (Nucleic Acid [11]) | Tm (Nucleic Acid [12]) | Kd (Nucleic Acid [14]) | Selectivity ratio (Nucleic Acid [16]) | inhibition (Nucleic Acid [17]) | Activity (Nucleic Acid [19]) | Activity (HL-60 [20]) | Activity (Nucleic Acid [22]) | other results
CN(C)CCCNc1c2ccccc2nc2c1[nH]c1ccc(F)cc12 | 88.3% | > 100000 nM | 74400 nM | 3% | 12% | 482 nM | 65.1 °C | 167 nM | 2.9 | 30% | 156% | Dose-dependent effect | 70.5% | Activity (HL-60 [3]): 50%; Activity (HL-60 [5]): Active; Activity (HL-60 [7]): inactive; Activity (HL-60 [8]): 22.3%; Activity (HL-60 [10]): 6.1%; Activity (HL-60 [13]): Active; Activity (HL-60 [15]): Active; viability at 1 µM (HL-60 [18]): < 25%; Activity (HL-60 [21]): Active
OCCNc1c2ccccc2nc2c1[nH]c1ccccc12 | 92.6% | > 100000 nM | > 100000 nM |  |  | 3380 nM | 51.5 °C | 1500 nM | 2.3 |  | 163% |  | 84.4% | 
CN(C)CCCNc1c2ccccc2[n+](C)c2c1[nH]c1ccc(F)cc12.[I-] | 74.6% | 19700 nM | 1110 nM | 3.5% | 25% | 269 nM | 76.9 °C | 31.8 nM |  | 50% | 132% | Dose-dependent effect | 51.4% | Activity (HL-60 [23]): inactive; Activity (HL-60 [24]): Active; Activity (HL-60 [25]): Active; viability at 0.2 µM (HL-60 [26]): < 25%; Activity (HL-60 [27]): Active; Activity (HL-60 [28]): 50%; Activity (HL-60 [29]): 23.8%; Activity (HL-60 [30]): 5%; Activity (HL-60 [31]): Active

Reference: ChEMBL document CHEMBL1158594, “Turning off transcription of the bcl-2 gene by stabilizing the bcl-2 promoter quadruplex with quindoline derivatives” (J Med Chem, 2010)
